Source: US12077503B2, “Substituted cyclic amides and their use as herbicides” (FMC CORPORATION, priority 2015, dated 2024)

What was measured:
Assay type in all cases: in vivo
[1] = test system: redroot pigweed (Amaranthus retroflexus); test: Test G Post-Emergence Protocol; conditions: Amaranthus retroflexus, post-emergence, 312 h, read-out: Pigweed, Redroot damage rating
How it was run: (§1)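 Foliar application was made 8 days after sowing, using an aqueous spray of the active in acetone/water (50:50) with 0.5% Tween 20, at doses of 15.625, 62.5 or 250 g/ha. Injury was assessed 13 days later, where 100 meant the plant was fully damaged.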

[2] = test system: giant foxtail (Setaria faberi); test: Test G Post-Emergence Protocol; conditions: Setaria faberi, post-emergence, 312 h, read-out: Foxtail, Giant damage rating
How it was run: as §1

[3] = test system: barnyardgrass (Echinochloa crus-galli); test: Test G Post-Emergence Protocol; conditions: Echinochloa crus-galli, post-emergence, 312 h, read-out: Barnyardgrass damage rating
How it was run: as §1

[4] = test system: corn (Zea mays); test: Test G Post-Emergence Protocol; conditions: Zea mays, post-emergence, 312 h, read-out: Corn damage rating
How it was run: as §1

[5] = test system: ivy-leaved morning glory (Ipomoea hederacea); test: Test G Post-Emergence Protocol; conditions: Ipomoea, post-emergence, 312 h, read-out: Morningglory, Ivy-leaved damage rating
How it was run: as §1

[6] = test system: velvetleaf (Abutilon theophrasti); test: Test G Post-Emergence Protocol; conditions: Abutilon theophrasti, post-emergence, 312 h, read-out: Velvetleaf damage rating
How it was run: as §1

[7] = test system: redroot pigweed (Amaranthus retroflexus); test: Test G Pre-Emergence Protocol; conditions: Amaranthus retroflexus, pre-emergence, 312 h, evaluated after 13 days
How it was run: (§2)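 Seeds were sown in standard soil and kept one day in a glasshouse (24/16° C day/night, 14 h light, 65% humidity), then sprayed with compound in acetone/water (50:50) containing 0.5% Tween 20 at 15.625, 62.5 or 250 g/ha. Damage was scored after 13 days (0 = none, 100 = total).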

[8] = test system: giant foxtail (Setaria faberi); test: Test G Pre-Emergence Protocol; conditions: Setaria faberi, pre-emergence, 312 h, evaluated after 13 days
How it was run: as §2

[9] = test system: barnyardgrass (Echinochloa crus-galli); test: Test G Pre-Emergence Protocol; conditions: Echinochloa crus-galli, pre-emergence, 312 h, evaluated after 13 days
How it was run: as §2

[10] = test system: corn (Zea mays); test: Test G Pre-Emergence Protocol; conditions: Zea mays, pre-emergence, 312 h, evaluated after 13 days
How it was run: as §2

[11] = test system: ivy-leaved morning glory (Ipomoea hederacea); test: Test G Pre-Emergence Protocol; conditions: Ipomoea, pre-emergence, 312 h, evaluated after 13 days
How it was run: as §2

[12] = test system: velvetleaf (Abutilon theophrasti); test: Test G Pre-Emergence Protocol; conditions: Abutilon theophrasti, pre-emergence, 312 h, evaluated after 13 days
How it was run: as §2

[13] = 15.625 g ai/ha, evaluated after 13 days (100=total damage to plant; 0=no damage to plant)
[14] = 62.5 g ai/ha, evaluated after 13 days, 100=total damage to plant, 0=no damage to plant
[15] = 250 g ai/ha, evaluated after 13 days, 100=total damage to plant, 0=no damage to plant

Cc1c[nH]nc1NC(=O)[C@@H]1C(=O)N(C)C[C@H]1c1ccc(C(F)(F)F)cc1 (racemic) [Compound 1660]
0%: pest or weed control at 15.625 g/ha [1, 13] | pest or weed control at 62.5 g/ha [1, 14] | pest or weed control at 250 g/ha [1, 15] | pest or weed control at 15.625 g/ha [2, 13] | pest or weed control at 62.5 g/ha [2, 14] | pest or weed control at 250 g/ha [2, 15] | pest or weed control at 15.625 g/ha [3, 13] | pest or weed control at 62.5 g/ha [3, 14] | pest or weed control at 250 g/ha [3, 15] | plant injury at 15.625 g/ha [4, 13] | plant injury at 62.5 g/ha [4, 14] | plant injury at 250 g/ha [4, 15] | pest or weed control at 15.625 g/ha [5, 13] | pest or weed control at 62.5 g/ha [5, 14] | pest or weed control at 250 g/ha [5, 15] | pest or weed control at 15.625 g/ha [6, 13] | pest or weed control at 62.5 g/ha [6, 14] | pest or weed control at 250 g/ha [6, 15] | pest or weed control at 15.625 g/ha ([7]; 15.625 g ai/ha, read-out: Pigweed, Redroot damage rating (100=total damage to plant; 0=no damage to plant)) | pest or weed control at 62.5 g/ha ([7]; 62.5 g ai/ha, 100=total damage to plant, 0=no damage to plant, read-out: Pigweed, Redroot damage rating) | pest or weed control at 250 g/ha ([7]; 250 g ai/ha, read-out: Pigweed, Redroot damage rating (100=total damage to plant; 0=no damage to plant)) | pest or weed control at 15.625 g/ha ([8]; 15.625 g ai/ha, read-out: Foxtail, Giant damage rating (100=total damage to plant; 0=no damage to plant)) | pest or weed control at 62.5 g/ha ([8]; 62.5 g ai/ha, 100=total damage to plant, 0=no damage to plant, read-out: Foxtail, Giant damage rating) | pest or weed control at 250 g/ha ([8]; 250 g ai/ha, read-out: Foxtail, Giant damage rating (100=total damage to plant; 0=no damage to plant)) | pest or weed control at 15.625 g/ha ([9]; 15.625 g ai/ha, read-out: Barnyardgrass damage rating (100=total damage to plant; 0=no damage to plant)) | pest or weed control at 62.5 g/ha ([9]; 62.5 g ai/ha, 100=total damage to plant, 0=no damage to plant, read-out: Barnyardgrass damage rating) | pest or weed control at 250 g/ha ([9]; 250 g ai/ha, read-out: Barnyardgrass damage rating (100=total damage to plant; 0=no damage to plant)) | plant injury at 15.625 g/ha ([10]; 15.625 g ai/ha, read-out: Corn damage rating (100=total damage to plant; 0=no damage to plant)) | plant injury at 62.5 g/ha ([10]; 62.5 g ai/ha, 100=total damage to plant, 0=no damage to plant, read-out: Corn damage rating) | plant injury at 250 g/ha ([10]; 250 g ai/ha, read-out: Corn damage rating (100=total damage to plant; 0=no damage to plant)) | pest or weed control at 15.625 g/ha ([11]; 15.625 g ai/ha, read-out: Morningglory, Ivy-leaved damage rating (100=total damage to plant; 0=no damage to plant)) | pest or weed control at 62.5 g/ha ([11]; 62.5 g ai/ha, 100=total damage to plant, 0=no damage to plant, read-out: Morningglory, Ivy-leaved damage rating) | pest or weed control at 250 g/ha ([11]; 250 g ai/ha, read-out: Morningglory, Ivy-leaved damage rating (100=total damage to plant; 0=no damage to plant)) | pest or weed control at 15.625 g/ha ([12]; 15.625 g ai/ha, read-out: Velvetleaf damage rating (100=total damage to plant; 0=no damage to plant)) | pest or weed control at 62.5 g/ha ([12]; 62.5 g ai/ha, 100=total damage to plant, 0=no damage to plant, read-out: Velvetleaf damage rating) | pest or weed control at 250 g/ha ([12]; 250 g ai/ha, read-out: Velvetleaf damage rating (100=total damage to plant; 0=no damage to plant))
